In assay [1] the target is T1, LARG-stimulated RhoA nucleotide binding (Homo sapiens, UniProt Q9NZN5).
T1 sequence (Q9NZN5 765-1138): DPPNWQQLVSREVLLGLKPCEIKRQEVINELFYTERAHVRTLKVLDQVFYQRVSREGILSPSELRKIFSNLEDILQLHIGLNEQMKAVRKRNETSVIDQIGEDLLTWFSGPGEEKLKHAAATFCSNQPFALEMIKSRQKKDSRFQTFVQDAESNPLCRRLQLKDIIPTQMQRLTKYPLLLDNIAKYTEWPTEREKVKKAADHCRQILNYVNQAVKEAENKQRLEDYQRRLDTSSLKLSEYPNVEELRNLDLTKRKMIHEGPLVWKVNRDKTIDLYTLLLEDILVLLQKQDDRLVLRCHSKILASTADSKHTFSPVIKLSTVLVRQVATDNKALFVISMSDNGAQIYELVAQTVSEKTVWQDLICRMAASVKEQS
It is filed as biochemical. The settings on record: 20 minutes; for Hill Slope [TR-GTPγS]: BODIPY-TR-GTPγS fluorescence polarization dose-response; for IC50: BODIPY-TR-GTPγS 500 nM, LARG 100 nM, RhoA (C189S) 2 μM. Background: Polarisation of emitted light reports the rotation of a fluorescent probe.

Assay [2] deals with T2, LARG-stimulated RhoA [35S] GTPγS binding (Homo sapiens, UniProt Q9NZN5).
T2 sequence (Q9NZN5 765-1138): T1 sequence (Q9NZN5 765-1138)
The assay can be described thus: LARG-stimulated RhoA [35S] GTPγS guanine nucleotide binding assay. The conditions noted are these: LARG 2 nM, RhoA (C189S) 500 nM, 25 minute time point. It is filed as biochemical. On the technique in general: Binding of GTPγS marks nucleotide exchange on a G protein.

Read-outs that look alike come from different tables or passages of the source.

With `Nc1ccc(O)c(-c2nc3cc(N)ccc3s2)c1` [CCG-5849, 4-amino-2-(5-amino-1,3-benzothiazol-2-yl)phenol], in assay [1], the “Hill Slope [TR-GTPγS]” value is given as -1.6. Besides, in assay [1] (IC50 (μM) [TR-GTPγS]), the IC50 – broadly, the concentration at which inhibition is half-maximal – stood at 10.7 µM.
In the case of `O=c1oc2cc(O)ccc2cc1-c1csc(-c2ccc(-c3ccccc3)cc2)n1` [CCG-7167], in assay [2], the “Hill Slope [GTPγS35]” value is listed as -2.2. For the same compound, the results for the concentration for half-maximal inhibition (IC50) in assay [2] (read-out: IC50 (μM) [GTPγS35]) and in assay [1] (read-out: IC50 (μM) [TR-GTPγS]) were 4.2 µM and 65.1 µM, respectively. Moreover, in assay [1], the “Hill Slope [TR-GTPγS]” value is on record as -1.8.
Turning to `N=C1S/C(=C\c2ccc(-c3ccccc3[N+](=O)[O-])o2)C(=O)N1c1ccc2c(c1)OCO2` [CCG-13528, (5Z)-3-(2H-1,3-benzodioxol-5-yl)-2-imino-5-{[5-(2-nitrophenyl)furan-2-yl]methylidene}-1,3-thiazolidin-4-one], the values for the IC50 in assay [2] (IC50 (μM) [GTPγS35]) and in assay [1] (IC50 (μM) [TR-GTPγS]) were 4.6 µM and 39.8 µM, respectively. Further, the “Hill Slope [GTPγS35]” value in assay [2] is -1.8. For the same compound, the “Hill Slope [TR-GTPγS]” value in assay [1] is given as -3.4.
Regarding `Cc1cccc(NCC(=O)N/N=C\c2c(Br)cc(Br)c(O)c2Br)c1` [CCG-14113, (N′Z)-2-[(3-methylphenyl)amino]-N′-[(2,4,6-tribromo-3-hydroxyphenyl)methylidene]acetohydrazide], the half-maximal inhibitory concentration (IC50) in assay [2] (IC50 (μM) [GTPγS35]) is 32.8 µM; in assay [1] (IC50 (μM) [TR-GTPγS]), 32.2 µM. Moreover, the “Hill Slope [GTPγS35]” value in assay [2] is -7.1. The “Hill Slope [TR-GTPγS]” value in assay [1] is -1.0.
The matching figures for `O=C1NC(=S)NC(=O)C1=Cc1ccc(-c2ccc(S(=O)(=O)Nc3nccs3)cc2)o1` [CCG-14631, 4-{5-[(4,6-dioxo-2-sulfanylidene-1,3-diazinan-5-ylidene)methyl]furan-2-yl}-N-(1,3-thiazol-2-yl)benzene-1-sulfonamide]: 7 µM, 3.1 µM, -1.1 and -0.7.

These data come from PMC2698131 (Journal of biomolecular screening, 2009).
